What is called EC50 is the midpoint of the concentration-response curve.

One experiment deals with SH-SY5Y M-currents (KCNQ2, KCNQ3 and KCNQ5). Kind of experiment: SH-SY5Y native cell line FLIPR assay (voltage-sensitive dye DiBAC). The experiment is classed as cell-based, mouse neuroblastoma, rat glioma hybrid cell line. Particulars: FLIPR assay, SH-SY5Y native cell line; Table 1; read-out: SH-SY5Y EC50. From the text:
SH-SY5Y cells, a mouse neuroblastoma, rat glioma hybrid cell line, functionally express M-currents (Robbins et al., J. Physiol. 451: 159-85 (1992). SH-SY5Y M-currents are likely comprised, at least in part, of KCNQ2, KCNQ3 and KCNQ5, since these genes are reportedly robustly expressed in differentiated SH-SY5Y cells (Selyanko et al., J. Neurosci. 19(18): 7742-56 (1999); Schroeder et al., J. Biol. Chem. 275(31): 24089-95 (2000)) and KCNQ3 dominant-negative constructs reduce M-current density in these cells (Selyanko et al., J. Neurosci. 22(5): RC212 (2002).
SH-SY5Y were maintained in DMEM (high glucose) supplemented with 10% fetal bovine serum, 0.05 mM pyridoxine, 0.1 mM hypoxanthine, 400 nM aminopterin, […], 50 μgml^−1 gentamycin and 10 mM HEPES, in an incubator at 37° C. with a humidified atmosphere of 5% CO2. Cells were plated in 96 well plates differentiated by addition of 10 μM PGE1 and 50 μM isomethylbutylxanthine to the growth media prior to study.
Differentiated SH-SY5Y cells were loaded with voltage-sensitive dye by incubation in Earls Balanced Salt Solution (EBSS) containing […] DiBAC for 1 h. Following loading, drug solution containing […] DiBAC was added to each well. Changes in fluorescence were measured every 30 s for 25 min. The maximum change in fluorescence was measured and expressed as a percentage of the maximum response obtained in the presence of a positive control agent.
As to `O=C(Cc1ccc(F)cc1)Nc1nc2ccc(C(F)(F)F)cn2c1CC1CCCCC1` [Compound 40, N-(3-(cyclohexylmethyl)-6-(trifluoromethyl)imidazo[1,2-a]pyridin-2-yl)-2-(4-fluorophenyl)acetamide], the EC50 is less than 500 nM.
In the case of `O=C(Nc1nc2ccc(C(F)(F)F)cn2c1C1CCCC1)C1CCCC1` [Compound 55, N-(3-cyclopentyl-6-(trifluoromethyl)imidazo[1,2-a]pyridin-2-yl)cyclopentanecarboxamide], the half-maximal effective concentration (EC50) is less than 500 nM.

Staying with this experiment, now noted: FLIPR assay, SH-SY5Y native cell line; Table 2; read-out: SH-SY5Y EC50.
As to `CC(C)C(C)C(=O)Nc1nc2ccc(F)cn2c1-c1cccc(OC(F)(F)F)c1` (stereo not drawn) [Compound 278, N-(6-fluoro-3-(3-(trifluoromethoxy)phenyl)imidazo[1,2-a]pyridin-2-yl)-2,3-dimethylbutanamide], the concentration giving a half-maximal response (EC50) was less than 500 nM.
`O=C(Cc1ccc(F)cc1)Nc1nc2ccc(F)cn2c1-c1cc(F)cc(F)c1` [Compound 229, N-(3-(3,5-difluorophenyl)-6-fluoroimidazo[1,2-a]pyridin-2-yl)-2-(4-fluorophenyl)acetamide]: the EC50 is less than 500 nM.
The same measure, in the same setting: under `O=C(Cc1ccc(F)cc1)Nc1nc2ccc(Cl)cn2c1-c1ccc(F)cc1` [Compound 131, N-(6-chloro-3-(4-fluorophenyl)imidazo[1,2-a]pyridin-2-yl)-2-(4-fluorophenyl)acetamide] stands less than 500 nM.
The same measure, in the same setting: next, `CC(C)(C)CCC(=O)Nc1nc2ccc(F)cn2c1-c1cccc(C(F)(F)F)c1` [Compound 283, N-(6-fluoro-3-(3-(trifluoromethyl)phenyl)imidazo[1,2-a]pyridin-2-yl)-4,4-dimethylpentanamide]: less than 500 nM.
In the case of `Cc1ccc(CC(=O)Nc2nc3ccc(F)cn3c2-c2ccc(F)cc2)cc1` [Compound 143, N-(6-fluoro-3-(4-fluorophenyl)imidazo[1,2-a]pyridin-2-yl)-2-p-tolylacetamide], the 50% effective concentration (EC50) was less than 500 nM.
Same read-out and setting: next, `O=C(COc1ccc(Cl)cc1Cl)Nc1nc2ccc(F)cn2c1-c1ccc(OC(F)(F)F)cc1` [Compound 247, 2-(2,4-dichlorophenoxy)-N-(6-fluoro-3-(4-(trifluoromethoxy)phenyl)imidazo[1,2-a]pyridin-2-yl)acetamide]: 3000 to 10000 nM; `O=C(CC(F)(F)F)Nc1nc2ccc(F)cn2c1-c1cccc(C(F)(F)F)c1` [Compound 267, 3,3,3-trifluoro-N-(6-fluoro-3-(3-(trifluoromethyl)phenyl)imidazo[1,2-a]pyridin-2-yl)propanamide]: 500 to 3000 nM; `O=C(Nc1nc2ccc(F)cn2c1-c1ccc(OC(F)(F)F)cc1)C1CCCC1` [Compound 290, N-(6-fluoro-3-(4-(trifluoromethoxy)phenyl)imidazo[1,2-a]pyridin-2-yl)cyclopentanecarboxamide]: less than 500 nM.
Consider `COc1ccc(CC(=O)Nc2nc3ccc(F)cn3c2-c2ccc(F)cc2)cc1` [Compound 132, N-(6-fluoro-3-(4-fluorophenyl)imidazo[1,2-a]pyridin-2-yl)-2-(4-methoxyphenyl)acetamide], for which the EC50 was 500 to 3000 nM.

The same experiment, now with this note: SH-SY5Y native cell line, FLIPR assay (Table 3); read-out: SH-SY5Y EC50.
With `Cc1ccc2nc(NC(=O)C3CCC(F)(F)CC3)c(-c3nccs3)n2n1` [Compound 389, 4,4-difluoro-N-(6-methyl-3-(thiazol-2-yl)imidazo[1,2-b]pyridazin-2-yl)cyclohexanecarboxamide], the concentration giving a half-maximal response (EC50) was 3000 to 10000 nM.
Same read-out and setting: next, `Cc1ccc2nc(NC(=O)CC(C)C(F)(F)F)c(-c3nc4ccccc4s3)n2n1` (stereo not drawn) [Compound 386, N-(3-(benzo[d]thiazol-2-yl)-6-methylimidazo[1,2-b]pyridazin-2-yl)-4,4,4-trifluoro-3-methylbutanamide]: 3000 to 10000 nM; `COc1cccc(-c2c(NC(=O)CC(C)(C)C)nc3ccc(F)cn23)n1` [Compound 367, N-(6-fluoro-3-(6-methoxypyridin-2-yl)imidazo[1,2-a]pyridin-2-yl)-3,3-dimethylbutanamide]: 500 to 3000 nM; `CC(C)(C)CC(=O)Nc1nc2ccc(F)cn2c1-c1ccc(F)nc1` [Compound 349, N-(6-fluoro-3-(6-fluoropyridin-3-yl)imidazo[1,2-a]pyridin-2-yl)-3,3-dimethylbutanamide]: 500 to 3000 nM.
